Columns and labels:
Mus musculus [1] = test: Ex vivo antithrombotic activity in mouse assessed as protection against collagen and adrenaline-induced hind limb paralysis or death at 30 uM/kg, po administered 60 mins prior to thrombotic challenge after 3 days; type: functional, Hindlimb
Mus musculus [2] = test: Toxicity in mouse assessed as increase in bleeding time at 30 uM/kg, po administered 60 mins prior to tail incision after 3 days relative to aspirin; type: organism-based; details: in vivo
Mus musculus [3] = test: Ex vivo anticoagulant activity in mouse assessed as prothrombin time in plasma at 30 uM/kg, po after for 3 days; type: functional
Mus musculus [4] = test: Ex vivo antithrombotic activity in mouse assessed as protection against collagen and adrenaline-induced hind limb paralysis or death at 30 uM/kg, po administered 60 mins prior to thrombotic challenge after 1 hr; type: functional, Hindlimb
Mus musculus [5] = test: Toxicity in mouse assessed as increase in bleeding time at 30 uM/kg, po administered 60 mins prior to tail incision after 1 hr relative to aspirin; type: organism-based; details: in vivo

SMILES	Activity (Mus musculus [1]) [%]	Activity (Mus musculus [2]) [%]	Time (Mus musculus [3]) [s]	Activity (Mus musculus [4]) [%]	Activity (Mus musculus [5]) [%]
CNC(=O)c1cc2cc(C)c3ccccc3c2oc1=O	40	65	8.5	35	48
CCNC(=O)c1cc2cc(/C=C/C(=O)c3ccc(C)cc3)c3ccccc3c2oc1=O	44	100	11.1	40	33
Cc1ccc(NC(=O)c2cc3cc(C)c4ccccc4c3oc2=O)cc1	40	63	9.3	30	58
CCNC(=O)c1cc2cc(C)c3ccccc3c2oc1=O	30	68	10.2	30	45
Cc1ccc(C(=O)/C=C/c2cc3cc(C(=O)NCCCN4CCOCC4)c(=O)oc3c3ccccc23)cc1	33	45	11	30	25
CC(=O)Oc1ccccc1C(=O)O [ASPIRIN]	–	–	–	37	100
Cc1ccc(C(=O)/C=C/c2cc3cc(C(=O)N4CCOCC4)c(=O)oc3c3ccccc23)cc1	30	55	11.4	20	17
CNC(=O)c1cc2cc(/C=C/C(=O)c3ccc(C)cc3)c3ccccc3c2oc1=O	22	55	9.9	20	17
Cc1cc2cc(C(=O)N(C)C)c(=O)oc2c2ccccc12	40	100	10	20	58
Cc1ccc(NC(=O)c2cc3cc(/C=C/C(=O)c4ccc(C)cc4)c4ccccc4c3oc2=O)cc1	44	109	9.5	40	83
Cc1ccc(C(=O)/C=C/c2cc3cc(C(=O)N(C)C)c(=O)oc3c3ccccc23)cc1	33	82	10.5	30	59
CCCNC(=O)c1cc2cc(/C=C/C(=O)c3ccc(C)cc3)c3ccccc3c2oc1=O	33	127	10.3	40	100
Cc1cc2cc(C(=O)NCCCN3CCOCC3)c(=O)oc2c2ccccc12	33	91	10.2	30	50
Cc1ccc(C(=O)/C=C/c2cc3cc(C(=O)N4CCN(C)CC4)c(=O)oc3c3ccccc23)cc1	22	36	8.7	20	34
Cc1cc2cc(C(=O)N3CCOCC3)c(=O)oc2c2ccccc12	33	100	11.6	20	33
CC(=O)CC(c1ccccc1)c1c(O)c2ccccc2oc1=O (stereo not given) [WARFARIN]	50	46	116	–	–
Cc1cc2cc(C(=O)N3CCCCC3)c(=O)oc2c2ccccc12	29	91	9.4	20	59
Cc1ccc(C(=O)/C=C/c2cc3cc(C(=O)N4CCCCC4)c(=O)oc3c3ccccc23)cc1	42	45	9.7	30	25
CCCNC(=O)c1cc2cc(C)c3ccccc3c2oc1=O	20	55	10.2	10	17
Cc1cc2cc(C(=O)NC3CCCCC3)c(=O)oc2c2ccccc12	40	82	10.2	35	53
Cc1ccc(C(=O)/C=C/c2cc3cc(C(=O)NC4CCCCC4)c(=O)oc3c3ccccc23)cc1	44	109	10.6	40	84
Cc1cc2cc(C(=O)N3CCN(C)CC3)c(=O)oc2c2ccccc12	20	55	8.1	10	17

Reference: ChEMBL document CHEMBL1921700, “Synthesis of novel 3-carboxamide-benzocoumarin derivatives as orally active antithrombotic agents” (Bioorg Med Chem Lett, 2011)
